Measured values reported in patent US10072014B2 (Janssen Pharmaceutica NV, priority 2014, dated 2018).

How the values were obtained:
[1] = molecular target: T1, human mGlu2 receptor (Homo sapiens, UniProt Q14416); assay: [35S]GTPγS binding assay, negative allosteric modulation of mGluR2; format: biochemical; conditions: for Emax: maximal % inhibition relative to the control glutamate response (EC80 glutamate), read-out: GTPγS-hmGluR2 anGT Emax; for IC50: membranes from CHO cells transfected with human mGlu2 receptor, glutamate 60 μM (~EC80), read-out: GTPγS-hmGluR2 anGT pIC50 (converted)
T1 construct: expressed in transfected cells; host or cells: CHO cells
From the text: The compounds provided in the present invention are negative allosteric modulators of mGluR2. These compounds appear to inhibit glutamate responses by binding to an allosteric site other than the glutamate binding site. The response of mGluR2 to a concentration of glutamate is decreased when compounds of Formula (I) are present. Compounds of Formula (I) are expected to have their effect substantially at mGluR2 by virtue of their ability to reduce the function of the receptor. The effects of negative allosteric modulators tested at mGluR2 using the [^35S]GTPγS binding assay method described below and which is suitable for the identification of such compounds, and more particularly the compounds according to Formula (I), are shown in Table 7.
1) [^35S]GTPγS Binding Assay
The [^35S]GTPγS binding assay is a functional membrane-based assay used to study G-protein coupled receptor (GPCR) function whereby incorporation of a non-hydrolysable form of GTP, [^35S]GTPγS (guanosine 5′-triphosphate, labelled with […] ^35S), is measured. The G-protein a subunit catalyzes the exchange of guanosine 5′-diphosphate (GDP) by guanosine triphosphate (GTP) and on activation of the GPCR by an agonist, [^35S]GTPγS, becomes incorporated and cannot be cleaved to continue the exchange cycle (Harper (1998) Current Protocols in Pharmacology 2.6.1-10, John Wiley & Sons, Inc.). […] Here we describe the use of the [^35S]GTPγS binding assay using membranes from cells transfected with the human mGlu2 receptor and adapted from Schaffhauser et al. (Molecular Pharmacology, 2003, […]) for the detection of the negative allosteric modulation (NAM) properties of the compounds of this invention.
CHO-cells were cultured to pre-confluence and stimulated with 5 mM butyrate for 24 h. Cells were then collected by scraping in PBS and cell suspension was centrifuged (10 min at 4000 RPM in benchtop centrifuge). Supernatant was discarded and pellet gently resuspended in 50 mM Tris-HCl, pH 7.4 by mixing with an Ultra Turrax homogenizer. The suspension was centrifuged at 12,400 RPM (Sorvall F14S-6x250Y) for 10 minutes and the supernatant discarded. The pellet was homogenized in 5 mM Tris-HCl, pH 7.4 using an Ultra Turrax homogenizer and centrifuged again (13,000 RPM, 20 min, 4° C.). The final pellet was resuspended in 50 mM Tris-HCl, pH 7.4 and stored at −80° C. in appropriate aliquots before use. Protein concentration was determined by the Bradford method (Bio-Rad, USA) with bovine serum albumin as standard.
[^35S]GTPγS Binding Assay
Measurement of mGluR2 negative allosteric modulatory activity of test compounds was performed as follows. Test compounds and glutamate were diluted in assay buffer containing 10 mM HEPES acid, 10 mM HEPES salt, pH 7.4, 100 mM NaCl, 3 mM MgCl2 and 10 μM GDP. Human mGlu2 receptor-containing membranes were thawed on ice and diluted in assay buffer supplemented with 18 μg/ml saponin. Membranes were pre-incubated with compound together with a predefined (˜EC80) concentration of glutamate (60 μM) for 30 min at 30° C. After addition of [^35S]GTPγS (f.c. 0.1 nM), assay mixtures were shaken briefly and further incubated to allow [^35S]GTPγS incorporation on activation (30 minutes, 30° C.). Final assay mixtures contained 7 μg of membrane protein in 10 mM HEPES acid, 10 mM HEPES salt, pH 7.4, 100 mM NaCl, 3 mM MgCl2, 10 μM GDP and 10 μg/ml saponin. Total reaction volume was 200 μl. Reactions were terminated by rapid filtration through Unifilter-96 GF/B plates (Perkin Elmer, Massachusetts, USA) using a 96-well filtermate universal harvester. Filters were washed 6 times with ice-cold 10 mM NaH2PO4/10 mM Na2HPO4, pH 7.4. Filters were then air-dried, and 30 μl of liquid scintillation cocktail (Microscint-O) was added to each well. Membrane-bound radioactivity was counted in a Topcount.
The concentration-response curves of representative compounds of the present invention were generated using the Lexis software interface (developed at J&J). […]

[2] = test system: rats; assay: Reversal of the effect of the mGluR2 PAM JNJ-42153605-induced inhibition of scopolamine-induced hyperlocomotion; format: in vivo; conditions: Rattus norvegicus, PO, criterion for reversal: total distance >1500 cm, read-out: ED50 SCOP JNJ-42153605
Procedure: 2) Reversal of the Effect of the mGluR2 PAM JNJ-42153605-induced Inhibition of Scopolamine-induced Hyperlocomotion Apparatus
Motor activity was measured in microprocessor-based motor activity arenas (closed gray PVC cylinders with a height of 39 cm and a diameter of 31 cm). Each arena was placed on an infrared LED (8×8 LEDs) lit box (white PVC squared box; 40×40 cm^2; height 12.5 cm. An infrared-sensitive tube camera and a white light source were mounted to the ceiling above the observation chamber to track the animal. The total distance traveled (cm) was recorded and analyzed using the Noldus Ethovision XT Video Tracking System (Version 7.0.418; Noldus, Wageningen, The Netherlands). The intensity of the light within the activity cages (measured in the centre at the level of the floor) ranged between 4 and 8 LUX.
The rats were pretreated with test compound or vehicle at 60 min before the start of the activity recordings and placed into individual cages. The rats were challenged with JNJ-42153605 (3-(cyclopropylmethyl)-7-(4-phenylpiperidin-1-yl)-8-(trifluoromethyl)-[1,2,4]triazolo[4,3-a]pyridine; WO2010/130424; Cid et al. J. Med. Chem. 2012, 55, 8770-8789) (20 mg/kg, i.v.) 30 min before the start of the activity recording combined with scopolamine (0.16 mg/kg, i.v.) just before the start of the activity measurements. Immediately after the injection of scopolamine, the rats were placed into the activity monitors and total distance traveled over the first 30 min was measured.
Solvent-pretreated Control Rats.
Animals receiving the combination of JNJ-42153605 and scopolamine (n=433) almost always traveled a distance of less than 1500 cm (<1500 cm) (only 2.5% of the control rats traveled a distance of more than 1500 cm (>1500 cm)). On the other hand, animals challenged with scopolamine alone (n=215) always traveled a total distance of more than 1500 cm (>1500 cm) and almost always (in 95.8% of the rats) a distance of more than 4400 cm (>4400 cm). […] For reversal of the inhibitory effect of JNJ-42153605 on the scopolamine-induced hyperlocomotion, the following all-or-none criteria were adopted: (1) reversal: total distance>1500 cm.

T1 sequence (Q14416 19-872): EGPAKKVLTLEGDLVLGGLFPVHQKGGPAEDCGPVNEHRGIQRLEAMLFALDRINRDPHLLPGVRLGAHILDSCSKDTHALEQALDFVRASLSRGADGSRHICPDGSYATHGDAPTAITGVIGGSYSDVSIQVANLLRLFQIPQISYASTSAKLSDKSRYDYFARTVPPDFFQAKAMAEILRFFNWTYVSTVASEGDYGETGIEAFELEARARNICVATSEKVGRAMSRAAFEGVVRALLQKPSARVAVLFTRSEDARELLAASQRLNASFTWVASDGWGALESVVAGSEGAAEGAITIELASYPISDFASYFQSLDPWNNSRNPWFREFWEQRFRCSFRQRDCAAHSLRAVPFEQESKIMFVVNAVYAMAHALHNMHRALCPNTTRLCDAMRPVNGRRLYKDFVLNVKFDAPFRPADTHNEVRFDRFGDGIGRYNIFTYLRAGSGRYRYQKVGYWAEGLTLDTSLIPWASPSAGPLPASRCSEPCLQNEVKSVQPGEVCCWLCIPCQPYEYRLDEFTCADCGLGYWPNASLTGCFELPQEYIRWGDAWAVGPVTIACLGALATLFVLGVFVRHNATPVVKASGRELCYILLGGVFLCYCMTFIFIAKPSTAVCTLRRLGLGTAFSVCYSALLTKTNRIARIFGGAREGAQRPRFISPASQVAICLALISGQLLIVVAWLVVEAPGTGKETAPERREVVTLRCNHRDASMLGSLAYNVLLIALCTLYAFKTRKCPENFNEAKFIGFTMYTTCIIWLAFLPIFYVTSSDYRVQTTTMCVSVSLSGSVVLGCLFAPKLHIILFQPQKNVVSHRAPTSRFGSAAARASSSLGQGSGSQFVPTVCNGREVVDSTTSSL

Compound | Emax [1] [%] | IC50 [1] [nM] | melting point [°C] | ED50 [2] [mg/kg]
C[C@H]1CN(c2ccc(C(F)(F)F)cc2)C(=O)c2c(-c3nc[nH]c3Br)cnn21 [Compound 1] | 99.3 | 11.5 | 228.68 | 
CC(C)c1nc(-c2cnn3c2C(=O)N(c2ccc(C(F)(F)F)cc2)C[C@@H]3C)c[nH]1 [Compound 6] | 104 | 30.9 | 156.03 | 
Cc1nc(C2CC2)[nH]c1-c1cnn2c1C(=O)N(c1ccc(C(F)(F)F)cc1)C[C@@H]2C [Compound 7] | 106 | 31.6 |  | > 0.63
C[C@H]1CN(c2ccc(C(F)(F)F)cc2)C(=O)c2c(-c3cnc(C(F)(F)F)[nH]3)cnn21 [Compound 8] | 108 | 33.1 |  | 
C[C@H]1CN(c2ccc(C(F)(F)F)cc2)C(=O)c2c(-c3nc(-c4ccc(N)nc4)[nH]c3Br)cnn21 [Compound 9] | 108 | 34.7 |  | 
COCc1ncc(-c2cnn3c2C(=O)N(c2ccc(C(F)(F)F)cc2)C[C@@H]3C)[nH]1 [Compound 13] | 104 | 83.2 |  | 
Cc1[nH]c(-c2cccnc2)nc1-c1cnn2c1C(=O)N(c1ccc(C(F)(F)F)cc1)C[C@@H]2C [Compound 14] | 103 | 110 | 244.74 | 
Cc1cc(N2C[C@H](C)n3ncc(-c4c[nH]c(-c5ccc(N)nc5)n4)c3C2=O)ccc1C(F)(F)F [Compound 20] | 107 | 53.7 | 275.27 | 
Cc1nc(-c2cnn3c2C(=O)N(c2ccc(C(F)(F)F)c(C#N)c2)C[C@@H]3C)c[nH]1 [Compound 23] | 104 | 64.6 | 226.81 | 
Cc1ncc(-c2cnn3c2C(=O)N(c2ccc(C(F)(F)F)c(CF)c2)C[C@@H]3C)[nH]1 [Compound 24] | 106 | 15.8 | 174.28 | 
CNC(=O)c1nc(-c2cnn3c2C(=O)N(c2ccc(C(F)(F)F)c(Cl)c2)C[C@@H]3C)c[nH]1 [Compound 35] | 111 | 38 |  | 
C[C@H]1CN(c2ccc(C(F)(F)F)c(Cl)c2)C(=O)c2c(-c3c[nH]c(-c4cccnc4)n3)cnn21 [Compound 37] | 109 | 12.9 | 188.06 | 
Cc1[nH]c(-c2ccccn2)nc1-c1cnn2c1C(=O)N(c1ccc(C(F)(F)F)c(Cl)c1)C[C@@H]2C [Compound 38] | 105 | 21.4 | 232.11 | 
C[C@H]1CN(c2ccc(C(F)(F)F)cc2)C(=O)c2c(-c3cnc(C4CCC4)[nH]3)cnn21 [Compound 40] | 107 | 6.92 |  | 
Cc1cc(-c2ncc(-c3cnn4c3C(=O)N(c3ccc(C(F)(F)F)cc3)C[C@@H]4C)[nH]2)ccn1 [Compound 41] | 106 | 166 |  | 
C[C@H]1CN(c2ccc(C(F)(F)F)c(Cl)c2)C(=O)c2c(-c3c[nH]c(-c4cnccn4)n3)cnn21 [Compound 43] | 106 | 4.9 | 227.75 | 

Further lines, with some results ahead:

Emax [1] [%] | IC50 [1] [nM] | melting point [°C] | Compound | ED50 [2] [mg/kg]
103 | 20 |  | C[C@H]1CN(c2ccc(C(F)(F)F)cc2)C(=O)c2c(-c3c[nH]c(C4CC4)n3)cnn21 [Compound 2] | 
108 | 25.1 |  | C[C@H]1CN(c2ccc(C(F)(F)F)cc2)C(=O)c2c(-c3nc(-c4ccc(N)nc4)[nH]c3Cl)cnn21 [Compound 3] | 
105 | 27.5 | 119.88 | C[C@H]1CN(c2ccc(C(F)(F)F)cc2)C(=O)c2c(-c3c[nH]c(-c4ccccc4)n3)cnn21 [Compound 5] | 
107 | 36.3 | 219.19 | C[C@H]1CN(c2ccc(C(F)(F)F)cc2)C(=O)c2c(-c3cnc(C#N)[nH]3)cnn21 [Compound 10] | 
101 | 70.8 | 176.92 | C[C@H]1CN(c2ccc(C(F)(F)F)cc2)C(=O)c2c(-c3cnc[nH]3)cnn21 [Compound 12] | 
102 | 170 | 205 | CNc1ncc(-c2cnn3c2C(=O)N(c2ccc(C(F)(F)F)cc2)C[C@@H]3C)[nH]1 [Compound 15] | 
106 | 145 | 198.73 | Cc1[nH]c(-c2ccccn2)nc1-c1cnn2c1C(=O)N(c1ccc(C(F)(F)F)cc1)C[C@@H]2C [Compound 17] | 
108 | 50.1 |  | C[C@H]1CN(c2ccc(Cl)c(Cl)c2)C(=O)c2c(-c3c[nH]c(-c4ccc(N)nc4)n3)cnn21 [Compound 19] | 
111 | 3.89 |  | C[C@H]1CN(c2ccc(C(F)(F)F)c(Cl)c2)C(=O)c2c(-c3c[nH]c(C#N)n3)cnn21 [Compound 29] | 
106 | 110 |  | C[C@H]1CN(c2ccc(C(F)(F)F)c(Cl)c2)C(=O)c2c(-c3c[nH]c(C(=O)N(C)C)n3)cnn21 [Compound 36] | 
104 | 8.32 |  | C[C@H]1CN(c2ccc(C(F)(F)F)c(Cl)c2)C(=O)c2c(-c3c[nH]c(-c4ccccn4)n3)cnn21 [Compound 39] | 
109 | 1.86 | 173.18 | C[C@H]1CN(c2ccc(C(F)(F)F)c(Cl)c2)C(=O)c2c(-c3c[nH]c(C4CCC4)n3)cnn21 [Compound 42] | 
103 | 38.9 |  | C[C@H]1CN(c2ccc(C(F)(F)F)cc2)C(=O)c2c(-c3c[nH]c(-c4cnccn4)n3)cnn21 [Compound 44] | 
106 | 34.7 |  | C[C@H]1CN(c2ccc(C(F)(F)F)c(Cl)c2)C(=O)c2c(-c3nc(-c4ccc(N)nc4)[nH]c3C#N)cnn21 [Compound 45] | 
